In patent publication US20110011310A1, “METHOD OF MANUFACTURING A COMPOSITE BASED ON COMPLEXES OF CONTROLLED STABILITY” (UNIVERSITE DE NICE SOPHIA-ANTIPOLIS, priority 2007, published 2011):

Test: Thermogravimetry of the temperature of decomposition of indigo (FIGS. 3 and 6)
Format: physicochemical
Description: […] This peak is offset to around 540° C. when the mixture has been heated at 18 (unheated), 120, 180, 280 and 350° C. during production of the composite.
In addition, during the step of cleaning by heating at temperatures of 18 (unheated), 180, 280 and 320° C. for 20 minutes, a peak characteristic of the presence of indigo in the external medium is observed, as these molecules begin to decompose at 280° C. with a maximum rate at 340° C. This phenomenon is possible owing to surface interactions between the indigo and the sepiolite, which reduce the temperature of decomposition of the indigo, which in a pure product begins at 300° C. with a maximum at 390° C. However, this peak disappears after the cleaning by heating at 350° C. for 20 minutes. […] Also, at 520° C., a peak characteristic of the presence of indigo in the sepiolite tunnels is observed. This cleaning by heating step in this type of preparation enables only the molecules present in the tunnels to be preserved.

O=C1/C(=C2\Nc3ccccc3C2=O)Nc2ccccc21 [indigo]
temperature of maximum rate of decomposition of indigo (indigo in the external medium of 23% indigo/sepiolite mixtures): 340 °C
temperature at which decomposition of indigo begins (indigo in the external medium of 23% indigo/sepiolite mixtures (surface interactions with sepiolite)): 280 °C
temperature of the thermogravimetric peak of indigo (indigo in the sepiolite tunnels of 23% indigo/sepiolite mixtures (FIG. 6)): around 520 °C
maximum temperature of decomposition of indigo (indigo incorporated in the sepiolite tunnels (FIG. 3)): 540 °C
maximum temperature of decomposition of indigo (native indigo (FIG. 3)): around 375 °C
temperature at which decomposition of indigo begins (pure product): 300 °C
temperature of maximum decomposition of indigo (pure product): 390 °C
